Laboratory results: patent US20220323406A1, “METHODS AND COMPOSITIONS FOR DIFFERENTIATING STEM CELLS” (Massachusetts Institute of Technology, priority 2019, published 2022)
Where a name gives a salt, the structure may show the parent alone.

How the values were obtained:
[1] = system: ENR+CD organoids; test: Primary screen: ATP (CellTiter-Glo 3D, CTG) cell number/viability, 2.5-D 384-well ENR+CD organoids; settings: primary screen; for Z.CTG: standard z score;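 on all read-outs here: compounds given at plating and again on day 3 over a 6-day differentiation from ENR+CV stem-cell-enriched precursors, ATP measured on day 6, plate median as control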
[2] = system: ENR+CD organoids (ISC to Paneth cell differentiation); test: Primary screen: CCh-stimulated lysozyme secretion LYZ.S, 2.5-D 384-well ENR+CD organoid differentiation; format: cell-based, mouse; settings: primary screen
Text: (§1) High-throughput screening.

[3] = system: ENR+CD organoids (ISC to Paneth cell differentiation); test: Primary screen: basal (non-stimulated) lysozyme secretion LYZ.NS, 2.5-D 384-well ENR+CD organoid differentiation; format: cell-based, mouse; settings: primary screen; for Z.LYZ.NS: standard z score
Text: as §1

Row | SMILES | Dose.FC.CTG ([1]; dose 0.08 uM) [log2 fold change] | Dose.FC.CTG ([1]; dose 0.40 uM) [log2 fold change] | Dose.FC.CTG ([1]; dose 2.00 uM) [log2 fold change] | Dose.FC.CTG ([1]; dose 10.00 uM) [log2 fold change] | Dose.FC.LYZ.S ([2]; dose 0.08 uM) [log2 fold change] | Dose.FC.LYZ.S ([2]; dose 0.40 uM) [log2 fold change] | Dose.FC.LYZ.S ([2]; dose 2.00 uM) [log2 fold change] | Dose.FC.LYZ.S ([2]; dose 10.00 uM) [log2 fold change] | Dose.FC.LYZ.NS ([3]; dose 0.08 uM) [log2 fold change] | Dose.FC.LYZ.NS ([3]; dose 0.40 uM) [log2 fold change] | Dose.FC.LYZ.NS ([3]; dose 2.00 uM) [log2 fold change] | Dose.FC.LYZ.NS ([3]; dose 10.00 uM) [log2 fold change] | Z.LYZ.NS ([3]; dose 0.08 uM) | Z.LYZ.NS ([3]; dose 0.40 uM) | Z.LYZ.NS ([3]; dose 2.00 uM) | Z.LYZ.NS ([3]; dose 10.00 uM) | Z.CTG ([1]; dose 0.08 uM) | Z.CTG ([1]; dose 0.40 uM) | Z.CTG ([1]; dose 2.00 uM) | Z.CTG ([1]; dose 10.00 uM)
1 | C=C1C(=O)O[C@@H]2/C=C(\C)CC/C=C(\C)CC[C@@H]12 [Costunolide] | −0.029 | 0.121 | 0.050 | 0.008 | 0.171 | 0.103 | −0.006 | 0.006 | 0.131 | 0.067 | −0.018 | 0.047 | 1.143 | 0.585 | −0.157 | 0.408 |  |  |  | 
2 | CC1(COc2ccc3c(c2)ncn3-c2ccc3cccc(N4CCC(N)CC4)c3n2)COC1 [Crenolanib (CP-868596)] | −0.069 | −0.025 | 0.053 | −0.338 | 0.094 | 0.043 | 0.149 | −0.292 | 0.121 | 0.051 | 0.122 | −0.224 | 1.051 | 0.441 | 1.065 | −1.951 | −0.165 | −0.059 | 0.127 | −0.808
3 | C[C@H]1COC2=C1C(=O)C(=O)c1c2ccc2c1CCCC2(C)C [Cryptotanshinone] | 0.199 | −0.027 | −0.184 | −0.541 | 0.156 | −0.105 | −0.288 | −0.432 | 0.143 | −0.120 | −0.182 | −0.288 | 1.243 | −1.047 | −1.585 | −2.506 |  |  |  | 
4 | CC(=O)O[C@]1(C(C)=O)CC[C@H]2[C@@H]3C=C(Cl)C4=CC(=O)[C@@H]5C[C@@H]5[C@]4(C)[C@H]3CC[C@@]21C [Cyproterone Acetate] | −0.110 | 0.051 | −0.143 | −0.173 | 0.040 | −0.019 | −0.093 | −0.134 | −0.026 | −0.074 | −0.055 | −0.081 | −0.225 | −0.642 | −0.479 | −0.702 |  |  |  | 
5 | c1ccc(CNc2nc(NCc3ccccc3)c3ccccc3n2)cc1 [DBeQ] | 0.119 | −0.013 | 0.004 | −1.133 | 0.045 | 0.210 | −0.103 | −0.423 | 0.097 | 0.064 | −0.048 | −0.296 | 0.844 | 0.558 | −0.414 | −2.577 | 0.285 | −0.031 | 0.010 | −2.706
6 | CNC(=O)c1cc(Oc2ccc(NC(=O)Nc3cc(C(C)(C)C)nn3-c3ccc4ncccc4c3)c(F)c2)ccn1 [DCC-2036 (Rebastinib)] | 0.216 | 0.218 | −0.038 | −0.322 | 0.358 | 0.186 | 0.054 | −0.244 | 0.259 | 0.128 | 0.073 | −0.209 | 2.256 | 1.116 | 0.637 | −1.823 | 0.516 | 0.520 | −0.091 | −0.769
7 | CC(C)Oc1ccc(-c2cnc3c(-c4ccnc5ccccc45)cnn3c2)cc1 [DMH1] | −0.031 | −0.079 | −0.002 | −0.001 | 0.078 | 0.054 | 0.035 | −0.092 | 0.018 | 0.026 | 0.014 | −0.075 | 0.155 | 0.231 | 0.124 | −0.657 | −0.075 | −0.188 | −0.004 | −0.003
8 | Cc1ccc2c(=O)c3cccc(CC(=O)O)c3oc2c1C [DMXAA (Vadimezan)] | −0.568 | −0.629 | −0.477 | −0.230 | −0.091 | −0.009 | −0.094 | −0.118 | −0.007 | −0.036 | −0.038 | −0.031 | −0.065 | −0.317 | −0.334 | −0.271 | −1.357 | −1.502 | −1.139 | −0.550
9 | CC(C)(C)c1nc(-c2cccc(NS(=O)(=O)c3c(F)cccc3F)c2F)c(-c2ccnc(N)n2)s1 [Dabrafenib (GSK2118436)] | −0.134 | 0.011 | −0.279 | −0.800 | 0.236 | 0.103 | 0.019 | −0.384 | 0.095 | 0.049 | −0.001 | −0.250 | 0.830 | 0.427 | −0.006 | −2.178 | −0.320 | 0.026 | −0.667 | −1.911
10 | CCC(CC)CC1(C(=O)Nc2ccccc2SC(=O)C(C)C)CCCCC1 [Dalcetrapib (JTT-705, RO4607381)] | 0.112 | −0.006 | 0.079 | 0.136 | 0.049 | 0.104 | 0.098 | −0.113 | 0.055 | −0.037 | −0.034 | −0.074 | 0.475 | −0.324 | −0.296 | −0.643 | 0.268 | −0.014 | 0.188 | 0.324
11 | COc1cccc2c1C(=O)c1c(O)c3c(c(O)c1C2=O)C[C@@](O)(C(C)=O)C[C@@H]3O[C@H]1C[C@H](N)[C@H](O)[C@H](C)O1 [Daunorubicin HCl] | −0.467 | −0.601 | −0.817 | −1.100 | −0.096 | −0.329 | −0.343 | −0.374 | −0.136 | −0.241 | −0.262 | −0.260 | −1.188 | −2.099 | −2.280 | −2.262 |  |  |  | 
